# Results taken from US20040063681A1, “Methods for using gold (III) complexes as anti-tumor and anti-HIV agents” (priority 2002, published 2004).
# Values joined by “and” are separate entries in the source; they are usually repeats but may differ in a detail not shown here. Equal values may be shown once.
# Columns and labels:
# [1] = target: T1, HIV-1 reverse transcriptase (Human immunodeficiency virus type 1 group M subtype B, UniProt P04585); experiment: HIV-1 reverse transcriptase activity, ELISA method; assay type: biochemical
# T1 construct: treatment of HIV-1 RT in Lysis buffer (2 ng, 128.7 μL) with Complex 1j
# Protocol: HIV-1 reverse transcriptase activities were measured by an ELISA method (see Eberle et al, J. Virol. Methods, 40:347-356 (1992) performed by incubating the enzyme with digoxigenin-labeled deoxyuridin-5′-triphosphate (dUTP) and the biotin-labeled analogue during reverse transcription starting from the template/primer hybrid poly(A)•oligo(dT)15. After reverse transcription, the newly synthesized DNA was immobilized onto streptavidin-coated ELISA wells, and the incorporation of the dioxigenin-labeled dUTP was assayed by chemiluminescence method. For example, treatment of HIV-1 RT in Lysis buffer (2 ng, 128.7 μL) with Complex 1j (1.3 μL of […] stock solution) dissolved in TBS at 37° C. produced significant RT activity inhibition (˜95%) after 30 min incubation.
# [2] = Electrochemical measurements (cyclic voltammetry); assay type: physicochemical; conditions: for Couple I (first reduction couple) / Couple II (second reduction couple): cyclic voltammetry, 0.1 M nBu4NPF6, glassy carbon, vs Cp2Fe^+/0; for ΔE1o (E^0Y − E^0H), couple I / ΔE2^0 (E^0Y − E^0H), couple II: relative to Y=H (Complex 1a)
# Protocol: Electrochemical measurements. Electrochemical measurements were performed at room temperature after purging with nitrogen using 0.1 M tetrabutylammonium hexafluorophosphate (TBAP)/acetonitrile as supporting electrolyte. The working electrode was a glassy carbon (Atomergic Chemetal V25, geometric area of 0.35 cm^2) electrode and the counter electrode was platinum gauze. A nonaqueous Ag/AgNO3 (0.1 M in acetonitrile) reference electrode was contained in a separate compartment connected to the test solution via fine sintered glass disks. The ferrocenium/ferrocene couple was used as the internal standard. The redox properties of the gold(III) porphyrin complexes in non-aqueous medium (CH2Cl2 with 0.1 M nBu4NPF6) have been studied by cyclic voltammetry with glassy carbon and platinum as the working and counter electrodes, respectively. […] The effect of para-substitution on the electrochemical potentials has been examined by Hammett correlation analysis.
# [3] = test system: Human Promyelocytic Leukemia (HL-60); experiment: MTT cytotoxicity, HL-60; assay type: cell-based; conditions: growth inhibition
# Text: (§1) Human promyelocytic leukemia (HL-60), human hepatocellular carcinoma (HepG2), Human cervix epitheloid carcinoma cells (HeLa) and human oral epidermoid carcinoma cells (KB-3-1), were obtained from American Type Culture Collection (ATCC) (Rockville, Md.). The multi-drug-resistant variant KB-V1 cell line was obtained by stepwise selections for vinblastine resistance as described by Shen et al., J. Biol. Chem. 261:7762-7770 (1986)], and was generously provided by Dr Michael Gottesman (NIH, Bethesda, Md.). Human nasopharyngeal carcinoma cells (SUNE1 and its cisplatin resistance variant, CNE1) were derived from poorly differentiated NPC in Chinese patients as described by Gu et al., Chin. J. Cancer 2:270-272 (1983), and were generously provided by Dr S. W. Tsao (The University of Hong Kong, Hong Kong, PRC). Cell culture flasks and 96 well microtitre plates were from Nalge Nunc hit. Culture medium, other medium constituents and phosphate buffered saline (PBS) were obtained from Gibco BRL (Rockville, Md.). Cell Proliferation Kit I (MTT) was purchased from Roche (Mannheim, Germany).
# (§2) The anti-cancer activities of the gold(III) porphyrin complexes were evaluated toward some established human cancer cell lines: promyelocytic leukemia (HL-60), hepatocellular carcinoma (HepG2), cervix epitheloid carcinoma (HeLa), epidermoid carcinoma (KB-3-1) and its multi-drug resistant variant (KB-V1), nasopharyngeal carcinoma (SUNE1) and its cisplatin-resistant variant (CNE1). The experiments were carried out by following the MTT procedure (see Mosmann et al., J. Immunol. Methods 65:55-63 (1983). The IC50 values of the gold(III) porphyrin complexes together with that of cisplatin, and KAuCl4 are provided in Table 4a; and the IC50 values of the gold(III) Schiff-base and bis(pyridyl)carboxamide complexes are shown in Table 4b. The cytotoxicity profiles of some selected gold(III) porphyrin complexes toward SUNE1 and its cisplatin-resistant variant CNE1 are also shown in FIG. 7.
# [4] = test system: Human Hepatocellular Carcinoma (HepG2); experiment: MTT cytotoxicity, HepG2; assay type: cell-based; conditions: growth inhibition
# Text: as §1, §2
# [5] = test system: Human Nasopharyngeal Carcinoma (SUNE1); experiment: MTT cytotoxicity, SUNE1; assay type: cell-based; conditions: for IC50: MTT, growth inhibition
# Text: (§3) Human promyelocytic leukemia (HL-60), human hepatocellular carcinoma (HepG2), Human cervix epitheloid carcinoma cells (HeLa) and human oral epidermoid carcinoma cells (KB-3-1), were obtained from American Type Culture Collection (ATCC) (Rockville, Md.). […] Cell culture flasks and 96 well microtitre plates were from Nalge Nunc hit. Culture medium, other medium constituents and phosphate buffered saline (PBS) were obtained from Gibco BRL (Rockville, Md.). Cell Proliferation Kit I (MTT) was purchased from Roche (Mannheim, Germany).
# [6] = test system: Human Cervix Epitheloid Carcinoma (HeLa); experiment: MTT cytotoxicity, HeLa; assay type: cell-based; conditions: for IC50: MTT, growth inhibition
# Text: as §3
# [7] = test system: Human Nasopharyngeal Carcinoma (cisplatin resistance, CNE1); experiment: MTT cytotoxicity, CNE1; assay type: cell-based; conditions: for IC50: MTT, growth inhibition, cisplatin resistant
# Text: as §3
# [8] = test system: Human Oral Epidermoid Carcinoma (KB-3-1); experiment: MTT cytotoxicity, KB-3-1; assay type: cell-based; conditions: for IC50: MTT, growth inhibition
# Text: as §3
# [9] = test system: Human Oral Epidermoid Carcinoma (multi-drug resistance, KB-V-1); experiment: MTT cytotoxicity, KB-V-1; assay type: cell-based
# Text: as §1
# The anti-cancer activities of the gold(III) porphyrin complexes were evaluated toward some established human cancer cell lines: promyelocytic leukemia (HL-60), hepatocellular carcinoma (HepG2), cervix epitheloid carcinoma (HeLa), epidermoid carcinoma (KB-3-1) and its multi-drug resistant variant (KB-V1), nasopharyngeal carcinoma (SUNE1) and its cisplatin-resistant variant (CNE1).
# calf thymus DNA = experiment: UV-vis absorption titration with calf thymus DNA; assay type: binding; conditions: for hypochromicity / intrinsic binding constant (Kb): Tris buffer
# Protocol: The calf thymus DNA was purchased from Sigma-Aldrich Chemical Co. and was purified by phenol-chloroform extraction. The DNA was dissolved in buffer (5 mM Tris, 5 mM NaCl, pH 7.2). The concentration (per base pair) of calf thymus DNA was determined spectrophotometrically on the basic of ε260, 13,200 M^−1cm^−1bp.
# Absorption Titration. The binding interaction of the gold(III) porphyrins to duplex DNA has been studied by UV-vis spectroscopy.
# where [ctDNA] is the concentration of DNA, Δεap═|εA−εB| in which εA=Aobs/[complex], and Δε=|εB−εF|. εB and εF correspond to the extinction coefficient of DNA-bound gold(III) porphyrin and the free gold(III) porphyrins, respectively.
# The effect of temperature on the intrinsic binding constants was investigated. Using the van't Hoff equation (2): […]
Compound,Couple I (first reduction couple) [2] [V],Couple II (second reduction couple) [2] [V],"ΔE1o (E^0Y − E^0H), couple I [2]","ΔE2^0 (E^0Y − E^0H), couple II [2]",IC50 [3] [µM],IC50 [4] [µM],IC50 ratio [cisplatin/gold (III) porphyrin complexes] SUNE1 [5],IC50 [5] [µM],IC50 ratio [cisplatin/gold (III) porphyrin complexes] HeLa [6],IC50 [6] [µM],IC50 ratio [cisplatin/gold (III) porphyrin complexes] CNE1 [7],IC50 [7] [µM],IC50 [8] [µM],also measured
"Cc1cn(C2CC(N=[N+]=[N-])C(CO)O2)c(=O)[nH]c1=O (stereo not shown) [AZT, 3′-azido-2′,3′-dideoxythymidine]",–,–,–,–,–,–,–,–,–,–,–,–,–,"inhibition at 0.008 µM ([1]; AZT 8 nM alone, read-out: HIV-1 RT enzyme inhibition, alone): 17 to 39%; IC50 ([1]; ELISA, mean ± SE of at least three determinations, read-out: IC50 HIV-1 RT): 0.069 ± 0.008 µM"
COc1ccc(-c2c3nc(c(-c4ccc(OC)cc4)c4ccc([n-]4)c(-c4ccc(OC)cc4)c4nc(c(-c5ccc(OC)cc5)c5ccc2[n-]5)C=C4)C=C3)cc1.[Au+3].[Cl-] [Complex 1c],−1.02,−1.51,−0.02 V,−0.02 V,0.88,0.76,18.5,0.68,17.0,0.66,53.0,0.77,–,–
Clc1ccc(-c2c3nc(c(-c4ccc(Cl)cc4)c4ccc([n-]4)c(-c4ccc(Cl)cc4)c4nc(c(-c5ccc(Cl)cc5)c5ccc2[n-]5)C=C4)C=C3)cc1.[Au+3].[Cl-] [Complex 1e],−0.96,−1.44,+0.44 V,+0.44 V,0.87,0.92,37.1,0.34,16.2,0.69,99.5,0.41,0.5,"IC50 ratio [cisplatin/gold (III) porphyrin complexes] KB-3-1 [8]: 26.4; IC50 ratio [cisplatin/gold (III) porphyrin complexes] KB-V1 [9]: 20.4; IC50 ([9]; MTT, growth inhibition, multi-drug resistant): 0.23 µM"
"C[n+]1ccc(-c2c3nc(c(-c4cc[n+](C)cc4)c4ccc([nH]4)c(-c4cc[n+](C)cc4)c4nc(c(-c5cc[n+](C)cc5)c5ccc2[nH]5)C=C4)C=C3)cc1 [[H2TMPyP]^4+, Meso-tetrakis(N-methylpyridinium-4-yl)porphyrin]",–,–,–,–,–,–,–,–,–,–,–,–,–,"HIV-1 RT inhibition activity compared with the corresponding metal complex (1j, 1k) ([1]; free-base porphyrins): substantially lower HIV-1 RT inhibition activities"
CCc1c(CC)c2[n]3c1C=c1c(CC)c(CC)c4[n]1[Au]31[n]3c(c(CC)c(CC)c3C=c3c(CC)c(CC)c([n]31)=C2)C=4 [Complex 1h],–,–,–,–,–,–,–,–,–,–,–,–,–,"hypochromicity (calf thymus DNA; 291.4 K): 30.1%; intrinsic binding constant (Kb) (calf thymus DNA; 291.4 K): 4.14 × 10^6 dm^3mol^−1; hypochromicity (calf thymus DNA; 296.8 K): 29.2%; intrinsic binding constant (Kb) (calf thymus DNA; 296.8 K): 2.73 × 10^6 dm^3mol^−1; hypochromicity (calf thymus DNA; 302.2 K): 28.0%; intrinsic binding constant (Kb) (calf thymus DNA; 302.2 K): 1.51 × 10^6 dm^3mol^−1; hypochromicity (calf thymus DNA; 305.5 K): 26.1%; intrinsic binding constant (Kb) (calf thymus DNA; 305.5 K): 1.27 × 10^6 dm^3mol^−1; hypochromicity (calf thymus DNA; 311.2 K): 24.4%; intrinsic binding constant (Kb) (calf thymus DNA; 311.2 K): 0.96 × 10^6 dm^3mol^−1; ΔS° (calf thymus DNA; binding to calf thymus DNA, van't Hoff analysis): −17.3 calmol^−1K^−1 and −17.3 ± 0.7 calmol^−1K^−1; ΔG° (298 K) (calf thymus DNA; binding to calf thymus DNA, van't Hoff analysis, 298 K): −8.2 ± 0.7"
"CCCC[N+](CCCC)(CCCC)CCCC.[Au+3].[Cl-].[Cl-].[Cl-].[Cl-] [nBu4N[AuCl4], Tetrabutylammonium tetrachloroaurate, reference compound]",–,–,–,–,9.71,11.2,–,9.94,–,8.41,–,11.5,10.3,–
